According to US10308916B2, “Omega-transaminase mutants with activity improvements toward ketones and methods for producing optically pure amines” (Industry-Academic Cooperation Foundation, Yonsei University, priority 2015, dated 2019):

Legend:
Type in all cases: biochemical
[1] = system: OATA W58A
[2] = system: OATA W58L
[3] = system: OATA W58A; conditions: pH 7
[4] = system: OATA W58V; conditions: pH 7
[5] = system: OATA W58I; conditions: pH 7
[6] = system: OATA W58M; conditions: pH 7
[7] = system: OATA W58L; conditions: pH 7

Compound | Relative reactivity, OATA W58A [1] [%] | Relative reactivity, OATA W58L [2] [%] | Relative activity to acetophenone, OATA W58A [3] [%] | Relative activity to acetophenone, OATA W58V [4] [%] | Relative activity to acetophenone, OATA W58I [5] [%] | Relative activity to acetophenone, OATA W58M [6] [%] | Relative activity to acetophenone, OATA W58L [7] [%]
COCC(C)N (stereo not shown) [1-Methoxy-2-propylamine] | 126 | 119 | – | – | – | – | –
CCCCCC[C@H](C)N [(S)-2-aminooctane] | 99 | 255 | – | – | – | – | –
CC(C)=O [acetone] | – | – | 19 | 18 | 18 | 19 | –
COc1ccc([C@H](C)N)cc1 [(S)-4-methoxy-α-methylbenzylamine] | 44 | 98 | – | – | – | – | –
CC(C)CC(C)N (stereo not shown) [1,3-Dimethylbutylamine] | 173 | 283 | – | – | – | – | –
cyclpropyl methyl ketone [Ketone 1o] | – | – | 14 | 14 | 17 | 19 | 4
Cc1cccc(C)c1OCC(C)N (stereo not shown) [Mexiletine, reference compound] | 197 | 284 | – | – | – | – | –
N[C@H]1CCc2ccccc21 [(S)-1-aminoindan] | 100 | 54 | – | – | – | – | –
COCC(C)=O [methoxyacetone] | – | – | 135 | 152 | 166 | 159 | 424
CC(=O)CO [hydroxyacetone] | – | – | 31 | 32 | 42 | 44 | 23
C[C@H](N)C1CC1 [(S)-1-Cyclopropylethylamine] | 79 | 233 | – | – | – | – | –
O=C(CO)c1ccccc1 [2-hydroxyacetophenone] | – | – | 61 | 70 | 73 | 65 | –
CC(=O)C(C)O (stereo not shown) [3-hydroxy-2-butanone] | – | – | 20 | 29 | 23 | 32 | –
CC(C)(C)C(N)c1ccccc1 (stereo not shown) [2,2-Dimethyl-1-phenylpropan-1-amine] | 3 | 2 | – | – | – | – | –
Cc1ccc([C@H](C)N)cc1 [(S)-α,4-dimethylbenzylamine] | 45 | 78 | – | – | – | – | –
CC(C)C(C)N (stereo not shown) [1,2-Dimethylpropylamine] | 101 | 305 | – | – | – | – | –
CCCC[C@H](C)N [(S)-2-aminohexane] | 116 | 306 | – | – | – | – | –
CCCC(C)N (stereo not shown) [2-Aminopentane] | 194 | 272 | – | – | – | – | –
CC(=O)CCO [4-hydroxy-2-butanone] | – | – | 17 | 20 | 20 | 29 | –
CC(N)CCc1ccccc1 (stereo not shown) [1-Methyl-3-phenylpropylamine] | 151 | 202 | – | – | – | – | –
CCC(=O)CO [1-hydroxy-2-butanone] | – | – | 9 | 8 | 16 | 21 | –
CC(N)CO (racemic) [DL-Alaninol] | 13 | 39 | – | – | – | – | –
(S)-sec-butylamine | 66 | 266 | – | – | – | – | –
CC(N)c1ccc(F)cc1 (stereo not drawn) [4-Fluoro-α-methylbenzylamine] | 117 | 283 | – | – | – | – | –
